Reference: ChEMBL document CHEMBL3885881, “DrugMatrix”

Species on record: Rattus norvegicus
Assay: DrugMatrix - Regimen: Daily Repeat
Type: toxicity, organism-based, Sprague-Dawley
Design: regimen Daily Repeat, gender Male, age 6-8 weeks
Conditions: in vivo, po, route oral GAVAGE, vehicle 100 % SALINE; for ABSOLUTE BASOPHIL / ABSOLUTE EOSINOPHIL / ABSOLUTE LYMPHOCYTE / ABSOLUTE MONOCYTE / ABSOLUTE SEGMENTED NEUTROPHIL / BASOPHIL / EOSINOPHIL / ERYTHROCYTE COUNT / HEMATOCRIT / HEMOGLOBIN / LEUKOCYTE COUNT / LYMPHOCYTE / MEAN CORPUSCULAR HEMOGLOBIN / MEAN CORPUSCULAR HEMOGLOBIN CONCENTRATION / MEAN CORPUSCULAR VOLUME / MONOCYTE / NEUTROPHIL / NUCLEATED RED BLOOD CELLS / PLATELET COUNT: tissue Blood; for ALANINE AMINOTRANSFERASE / ALBUMIN / ALKALINE PHOSPHATASE / ASPARTATE AMINOTRANSFERASE / BLOOD UREA NITROGEN / CARBON DIOXIDE / CHLORIDE / CHOLESTEROL / CREATINE PHOSPHOKINASE / CREATININE / GLUCOSE / LACTATE DEHYDROGENASE / LIPASE / PHOSPHORUS / POTASSIUM / SODIUM / TOTAL BILIRUBIN / TOTAL PROTEIN / URIC ACID: tissue Plasma
[1] = 3000 mg/kg, […], dose level Low, time 7 day
[2] = 6000 mg/kg, 72 h, dose level High, time 3 day
[3] = 6000 mg/kg, […], dose level High, time 7 day

CCO [ALCOHOL]
ABSOLUTE BASOPHIL [1]: 0 CELLS/uL | ABSOLUTE EOSINOPHIL [1]: 0 CELLS/uL | ABSOLUTE LYMPHOCYTE [1]: 9669 CELLS/uL | ABSOLUTE MONOCYTE [1]: 317.33 CELLS/uL | ABSOLUTE SEGMENTED NEUTROPHIL [1]: 1063.67 CELLS/uL | BASOPHIL [1]: 0% | EOSINOPHIL [1]: 0% | ERYTHROCYTE COUNT [1]: 5.39 x10E6/uL | HEMATOCRIT [1]: 34.88% | HEMOGLOBIN [1]: 13.85 G/DL | LEUKOCYTE COUNT [1]: 11.05 x10E3/uL | LYMPHOCYTE [1]: 87% | MEAN CORPUSCULAR HEMOGLOBIN [1]: 25.73 pg | MEAN CORPUSCULAR HEMOGLOBIN CONCENTRATION [1]: 39.75 G/DL | MEAN CORPUSCULAR VOLUME [1]: 64.77 fL | MONOCYTE [1]: 2.83% | NEUTROPHIL [1]: 10.17% | NUCLEATED RED BLOOD CELLS [1]: 0 /100WBC | PLATELET COUNT [1]: 1110 x10E3/uL | ALANINE AMINOTRANSFERASE [1]: 51.67 u/L | ALBUMIN [1]: 4.5 G/DL | ALKALINE PHOSPHATASE [1]: 281.33 u/L | ASPARTATE AMINOTRANSFERASE [1]: 82.67 u/L | BLOOD UREA NITROGEN [1]: 15 mg/dL | CARBON DIOXIDE [1]: 31 mmol/L | CHLORIDE [1]: 98.33 MEQ/L | CHOLESTEROL [1]: 69.83 mg/dL | CREATINE PHOSPHOKINASE [1]: 250 u/L | CREATININE [1]: 0.19 mg/dL | GLUCOSE [1]: 135.67 mg/dL | LACTATE DEHYDROGENASE [1]: 123.5 u/L | LIPASE [1]: 10.17 u/L | PHOSPHORUS [1]: 10.85 mg/dL | POTASSIUM [1]: 5.95 MEQ/L | SODIUM [1]: 143.15 MEQ/L | TOTAL BILIRUBIN [1]: 0.22 mg/dL | TOTAL PROTEIN [1]: 5.93 G/DL | URIC ACID [1]: 0.68 mg/dL | ABSOLUTE BASOPHIL [2]: 0 CELLS/uL | ABSOLUTE EOSINOPHIL [2]: 0 CELLS/uL | ABSOLUTE LYMPHOCYTE [2]: 11300.5 CELLS/uL | ABSOLUTE MONOCYTE [2]: 91.33 CELLS/uL | ABSOLUTE SEGMENTED NEUTROPHIL [2]: 1124.83 CELLS/uL | BASOPHIL [2]: 0% | EOSINOPHIL [2]: 0% | ERYTHROCYTE COUNT [2]: 5.6 x10E6/uL | HEMATOCRIT [2]: 35.9% | HEMOGLOBIN [2]: 13 G/DL | LEUKOCYTE COUNT [2]: 12.52 x10E3/uL | LYMPHOCYTE [2]: 90.17% | MEAN CORPUSCULAR HEMOGLOBIN [2]: 23.25 pg | MEAN CORPUSCULAR HEMOGLOBIN CONCENTRATION [2]: 36.23 G/DL | MEAN CORPUSCULAR VOLUME [2]: 64.17 fL | MONOCYTE [2]: 0.67% | NEUTROPHIL [2]: 9.17% | NUCLEATED RED BLOOD CELLS [2]: 0 /100WBC | PLATELET COUNT [2]: 1089.17 x10E3/uL | ALANINE AMINOTRANSFERASE [2]: 60.5 u/L | ALBUMIN [2]: 4.18 G/DL | ALKALINE PHOSPHATASE [2]: 281 u/L | ASPARTATE AMINOTRANSFERASE [2]: 86.33 u/L | BLOOD UREA NITROGEN [2]: 12.33 mg/dL | CARBON DIOXIDE [2]: 28.33 mmol/L | CHLORIDE [2]: 101.33 MEQ/L | CHOLESTEROL [2]: 80.33 mg/dL | CREATINE PHOSPHOKINASE [2]: 216.67 u/L | CREATININE [2]: 0.46 mg/dL | GLUCOSE [2]: 142.83 mg/dL | LACTATE DEHYDROGENASE [2]: 151.83 u/L | LIPASE [2]: 9.83 u/L | PHOSPHORUS [2]: 11.08 mg/dL | POTASSIUM [2]: 5.96 MEQ/L | SODIUM [2]: 146.62 MEQ/L | TOTAL BILIRUBIN [2]: 0.17 mg/dL | TOTAL PROTEIN [2]: 6.02 G/DL | URIC ACID [2]: 0.97 mg/dL | ABSOLUTE BASOPHIL [3]: 0 CELLS/uL | ABSOLUTE EOSINOPHIL [3]: 38 CELLS/uL | ABSOLUTE LYMPHOCYTE [3]: 9373.67 CELLS/uL | ABSOLUTE MONOCYTE [3]: 256.5 CELLS/uL | ABSOLUTE SEGMENTED NEUTROPHIL [3]: 1531.83 CELLS/uL | BASOPHIL [3]: 0% | EOSINOPHIL [3]: 0.33% | ERYTHROCYTE COUNT [3]: 5.4 x10E6/uL | HEMATOCRIT [3]: 33.48% | HEMOGLOBIN [3]: 13.42 G/DL | LEUKOCYTE COUNT [3]: 11.2 x10E3/uL | LYMPHOCYTE [3]: 84.5% | MEAN CORPUSCULAR HEMOGLOBIN [3]: 24.92 pg | MEAN CORPUSCULAR HEMOGLOBIN CONCENTRATION [3]: 40.07 G/DL | MEAN CORPUSCULAR VOLUME [3]: 62.18 fL | MONOCYTE [3]: 2.33% | NEUTROPHIL [3]: 12.83% | NUCLEATED RED BLOOD CELLS [3]: 0 /100WBC | PLATELET COUNT [3]: 1292.83 x10E3/uL | ALANINE AMINOTRANSFERASE [3]: 65.5 u/L | ALBUMIN [3]: 4.38 G/DL | ALKALINE PHOSPHATASE [3]: 202.33 u/L | ASPARTATE AMINOTRANSFERASE [3]: 86.17 u/L | BLOOD UREA NITROGEN [3]: 13 mg/dL | CARBON DIOXIDE [3]: 29.33 mmol/L | CHLORIDE [3]: 100.17 MEQ/L | CHOLESTEROL [3]: 67.17 mg/dL | CREATINE PHOSPHOKINASE [3]: 206 u/L | CREATININE [3]: 0.19 mg/dL | GLUCOSE [3]: 138.83 mg/dL | LACTATE DEHYDROGENASE [3]: 109 u/L | LIPASE [3]: 10 u/L | PHOSPHORUS [3]: 10.48 mg/dL | POTASSIUM [3]: 5.88 MEQ/L | SODIUM [3]: 144.13 MEQ/L | TOTAL BILIRUBIN [3]: 0.18 mg/dL | TOTAL PROTEIN [3]: 5.83 G/DL | URIC ACID [3]: 0.88 mg/dL
